Data from patent US7777073B2, “Topical delivery system for antiaging and skin whitening agents” (Bioderm Research, priority 2004, dated 2010).
“Also recorded” adds a separate entry of the source. Like-named read-outs stand apart in the source and are kept apart here.

Experiments:
mushroom tyrosinase = experiment: Inhibition of tyrosinase, kinetic analysis; format: biochemical; conditions: for IC50: 20 C, phosphate buffer 100 mM, pH 6.8, read-out: Tyrosinase Inhibitory Concentration
Protocol: Method. Kinetic analysis of 2,4 DHA inhibition.
All reactions were performed at 20 C, in phosphate buffer 100 mM, pH 6.8, mushroom tyrosinase.

Matrix metalloproteases = experiment: In vitro inhibition of Matrix metalloproteases, overall assessment; format: biochemical
Text: (§1) In vitro specific inhibition of MMP-2 and MMP-9 activity by [R]-(N-[(2,4-dihydroxyphenyl)ethyl]glycine and [S]-N-[(2,4-dihydroxyphenyl)ethyl]glycine was estimated with assay kits from Biomol Corporation. Recombinant human MMP-1 enzyme was obtained from R&D Systems. The enzyme was first activated with APMA according to the protocol provided by R&D Systems. The experimental conditions for the screening of MMP-1 inhibitors were similar to the settings used for MMP-2 and MMP-9 testing.

MMP-9 = molecular target: T1, MMP-9 (Homo sapiens, UniProt P14780); experiment: In vitro inhibition of MMP-9 (Biomol assay kit); format: biochemical; conditions: read-out: 50% Inhibition Concentration MMP-9 (converted)
T1 construct: purchased Biomol Corporation
Text: as §1
(§2) In vitro inhibition of MMP1, 2 and 9 for several samples (mcg=micro-grams).

skin = experiment: Differences in antiaging and skin whitening affect of [S] and [R] isomers
MMP-2 = molecular target: T2, MMP-2 (Homo sapiens, UniProt P08253); experiment: In vitro inhibition of MMP-2 (Biomol assay kit); format: biochemical; conditions: read-out: 50% Inhibition Concentration MMP-2 (converted)
T2 construct: purchased Biomol Corporation
Text: as §1, §2

[1] = molecular target: T3, Recombinant human MMP-1 enzyme (Homo sapiens, UniProt P03956); experiment: In vitro inhibition of MMP-1; format: biochemical; conditions: enzyme activated with APMA, read-out: 50% Inhibition Concentration MMP-1 (converted)
T3 construct: purchased R&D Systems
T3 sequence (P03956 100-469): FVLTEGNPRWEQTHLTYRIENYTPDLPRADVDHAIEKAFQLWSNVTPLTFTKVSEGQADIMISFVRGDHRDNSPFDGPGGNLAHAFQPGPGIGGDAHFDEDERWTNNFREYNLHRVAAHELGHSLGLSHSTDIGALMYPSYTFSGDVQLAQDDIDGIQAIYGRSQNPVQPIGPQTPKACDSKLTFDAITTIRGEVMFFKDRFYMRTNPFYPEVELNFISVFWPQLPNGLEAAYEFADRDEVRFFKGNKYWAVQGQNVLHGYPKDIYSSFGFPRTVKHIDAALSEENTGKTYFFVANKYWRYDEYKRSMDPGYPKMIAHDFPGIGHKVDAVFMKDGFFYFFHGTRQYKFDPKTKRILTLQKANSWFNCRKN
Text: as §1, §2

T1 sequence (P14780 107-444 limits assumed, species assumed): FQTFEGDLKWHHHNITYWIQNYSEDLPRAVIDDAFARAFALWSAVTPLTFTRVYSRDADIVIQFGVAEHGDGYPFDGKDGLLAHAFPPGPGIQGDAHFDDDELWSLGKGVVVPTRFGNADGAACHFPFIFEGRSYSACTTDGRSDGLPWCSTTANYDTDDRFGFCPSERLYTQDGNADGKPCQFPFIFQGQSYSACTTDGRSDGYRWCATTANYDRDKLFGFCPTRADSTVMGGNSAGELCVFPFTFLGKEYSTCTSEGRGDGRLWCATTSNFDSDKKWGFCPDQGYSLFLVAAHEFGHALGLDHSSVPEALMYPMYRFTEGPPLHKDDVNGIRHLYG
T2 sequence (P08253 110-452 limits assumed, species assumed): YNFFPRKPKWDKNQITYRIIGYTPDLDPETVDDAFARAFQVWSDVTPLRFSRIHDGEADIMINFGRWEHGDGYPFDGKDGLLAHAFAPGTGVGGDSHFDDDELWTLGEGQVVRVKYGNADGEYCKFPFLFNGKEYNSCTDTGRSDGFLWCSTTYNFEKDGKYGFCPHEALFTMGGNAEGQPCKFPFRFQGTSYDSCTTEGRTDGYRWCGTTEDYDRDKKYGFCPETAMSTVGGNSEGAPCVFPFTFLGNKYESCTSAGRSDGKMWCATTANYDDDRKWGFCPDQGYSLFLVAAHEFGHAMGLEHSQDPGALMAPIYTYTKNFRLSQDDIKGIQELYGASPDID

Compound | Tyrosinase inhibition (in words) (mushroom tyrosinase) | IC50 (mushroom tyrosinase) [µM] | Tyrosinase inhibition (in words) (mushroom tyrosinase; listed as [R]-(N-[(2,4-dihydroxyphenyl)ethyl]glycine)) | MMP inhibition (in words) (Matrix metalloproteases; MMP1, 2 and 9) | MMP inhibition (in words) (Matrix metalloproteases; MMP1, 2 and 9, listed as [R]-(N-[(2,4-dihydroxyphenyl)ethyl]glycine)) | IC50 (MMP-9) [µM] | Skin whitening benefits, [R] versus [S] isomer (skin) | IC50 (MMP-2) [µM] | IC50 [1] [µM] | Antiwrinkle properties, [S] versus [R] isomer (skin)
C[C@@H](NCC(=O)O)c1ccc(O)cc1O | excellent inhibitor | 5000 | anti-tyrosinase activity | very good and general inhibition | MMP inhibition | 94.7 | better skin whitening benefits | 71 | 94.7 | 
OC[C@H]1O[C@@H](Oc2ccc(O)cc2)[C@H](O)[C@@H](O)[C@@H]1O [Arbutin, reference compound] |  | 25000 |  |  |  |  |  |  |  | 
C[C@H](NCC(=O)O)c1ccc(O)cc1O [[S]-N-[(2,4-dihydroxyphenyl)ethyl]glycine] | anti-tyrosinase activity; also recorded: excellent inhibitor | 10000 |  | MMP inhibition; also recorded: just a bit weaker, but still quite acceptable |  | 284 |  | 189 | 166 | better antiwrinkle properties
